ChEMBL document CHEMBL1143950, “Antifungal and cytotoxic activities of some N-substituted aniline derivatives bearing a hetaryl fragment” (Bioorg Med Chem, 2008)
In brackets after ≈: the same amount, converted by molar mass.

How the values were obtained:
Type in all cases: functional
[1] = tested on: Trichophyton mentagrophytes; test: Antifungal activity against Trichophyton mentagrophytes ATCC 9972 by micro-broth dilution method
[2] = tested on: Aspergillus fumigatus; test: Antifungal activity against Aspergillus fumigatus ATCC 26934 by micro-broth dilution method
[3] = tested on: Candida tropicalis; test: Antifungal activity against Candida tropicalis C131 by micro-broth dilution method
[4] = tested on: Candida albicans; test: Antifungal activity against Candida albicans ATCC 10231 by micro-broth dilution method
[5] = tested on: Cryptococcus neoformans; test: Antifungal activity against Cryptococcus neoformans ATCC 32264 by microbroth dilution method
[6] = tested on: Nannizzia gypsea; test: Antifungal activity against Microsporum gypseum C115 by microbroth dilution method
[7] = tested on: Aspergillus flavus; test: Antifungal activity against Aspergillus flavus ATCC 9170 by micro-broth dilution method
[8] = tested on: Saccharomyces cerevisiae; test: Antifungal activity against Saccharomyces cerevisiae ATCC 9763 by microbroth dilution method
[9] = tested on: Trichophyton rubrum; test: Antifungal activity against Trichophyton rubrum C113 by microbroth dilution method
[10] = tested on: Aspergillus niger; test: Antifungal activity against Aspergillus niger ATCC 9029 by micro-broth dilution method

Row | Compound | MIC [1] | MIC [2] | MIC [3] | MIC [4] | MIC [5] | MIC [6] | MIC [7] | MIC [8] | MIC [9] | MIC [10]
1 | Cc1ccc(NCc2ccoc2)cc1 | 250 µg/mL (≈ 1340 µM) | 250 µg/mL (≈ 1340 µM) | 250 µg/mL (≈ 1340 µM) | 250 µg/mL (≈ 1340 µM) | 125 µg/mL (≈ 668 µM) | 125 µg/mL (≈ 668 µM) | 250 µg/mL (≈ 1340 µM) | 250 µg/mL (≈ 1340 µM) | 250 µg/mL (≈ 1340 µM) | 250 µg/mL (≈ 1340 µM)
2 | Cn1cccc1C(C#N)Nc1ccccc1 (stereo not given) | 250 µg/mL (≈ 1180 µM) | > 250 µg/mL | > 250 µg/mL | > 250 µg/mL | > 250 µg/mL | 250 µg/mL (≈ 1180 µM) | > 250 µg/mL | > 250 µg/mL | 250 µg/mL (≈ 1180 µM) | > 250 µg/mL
3 | c1ccc(NCc2cccnc2)cc1 | 125 µg/mL (≈ 678 µM) | 250 µg/mL (≈ 1360 µM) | 250 µg/mL (≈ 1360 µM) | 250 µg/mL (≈ 1360 µM) | > 250 µg/mL | 125 µg/mL (≈ 678 µM) | 250 µg/mL (≈ 1360 µM) | > 250 µg/mL | 125 µg/mL (≈ 678 µM) | 250 µg/mL (≈ 1360 µM)
4 | Cc1cc(C)cc(NCc2ccccn2)c1 | 50 µg/mL (≈ 236 µM) | 100 µg/mL (≈ 471 µM) | 200 µg/mL (≈ 942 µM) | > 250 µg/mL | 50 µg/mL (≈ 236 µM) | 50 µg/mL (≈ 236 µM) | 100 µg/mL (≈ 471 µM) | > 250 µg/mL | 50 µg/mL (≈ 236 µM) | 100 µg/mL (≈ 471 µM)
5 | Cc1ccc(NCc2ccccn2)cc1 | 50 µg/mL (≈ 252 µM) | > 250 µg/mL | > 250 µg/mL | > 250 µg/mL | > 250 µg/mL | 50 µg/mL (≈ 252 µM) | > 250 µg/mL | > 250 µg/mL | 50 µg/mL (≈ 252 µM) | > 250 µg/mL
6 | N#CC(Nc1ccccc1)c1cccs1 (stereo not given) | 250 µg/mL (≈ 1170 µM) | > 250 µg/mL | > 250 µg/mL | > 250 µg/mL | > 250 µg/mL | > 250 µg/mL | > 250 µg/mL | > 250 µg/mL | 250 µg/mL (≈ 1170 µM) | > 250 µg/mL
7 | Ic1ccc(NCc2cccnc2)cc1 | 25 µg/mL (≈ 80.6 µM) | 50 µg/mL (≈ 161 µM) | 200 µg/mL (≈ 645 µM) | > 250 µg/mL | 50 µg/mL (≈ 161 µM) | 50 µg/mL (≈ 161 µM) | 50 µg/mL (≈ 161 µM) | 200 µg/mL (≈ 645 µM) | 25 µg/mL (≈ 80.6 µM) | 100 µg/mL (≈ 322 µM)
8 | Clc1ccc(NCc2ccco2)cc1 | 12.5 µg/mL (≈ 60.2 µM) | 50 µg/mL (≈ 241 µM) | 62.5 µg/mL (≈ 301 µM) | 62.5 µg/mL (≈ 301 µM) | 50 µg/mL (≈ 241 µM) | 12.5 µg/mL (≈ 60.2 µM) | 50 µg/mL (≈ 241 µM) | 50 µg/mL (≈ 241 µM) | 6.25 µg/mL (≈ 30.1 µM) | 62.5 µg/mL (≈ 301 µM)
9 | C=CCC(Nc1ccc(Cl)cc1)c1cccn1C (stereo not given) | 250 µg/mL (≈ 959 µM) | > 250 µg/mL | > 250 µg/mL | > 250 µg/mL | > 250 µg/mL | > 250 µg/mL | > 250 µg/mL | > 250 µg/mL | 250 µg/mL (≈ 959 µM) | > 250 µg/mL
10 | C=CCC(Nc1ccc(Cl)c(Cl)c1)c1ccco1 (stereo not given) | > 250 µg/mL | > 250 µg/mL | > 250 µg/mL | > 250 µg/mL | > 250 µg/mL | > 250 µg/mL | > 250 µg/mL | > 250 µg/mL | > 250 µg/mL | > 250 µg/mL
11 | Ic1ccc(NCc2ccccn2)cc1 | 25 µg/mL (≈ 80.6 µM) | 200 µg/mL (≈ 645 µM) | > 250 µg/mL | > 250 µg/mL | 100 µg/mL (≈ 322 µM) | 25 µg/mL (≈ 80.6 µM) | 100 µg/mL (≈ 322 µM) | 200 µg/mL (≈ 645 µM) | 25 µg/mL (≈ 80.6 µM) | 100 µg/mL (≈ 322 µM)
12 | Cc1ccc(NCc2cccnc2)cc1 | 250 µg/mL (≈ 1260 µM) | > 250 µg/mL | > 250 µg/mL | > 250 µg/mL | > 250 µg/mL | 250 µg/mL (≈ 1260 µM) | > 250 µg/mL | > 250 µg/mL | 250 µg/mL (≈ 1260 µM) | > 250 µg/mL
13 | Clc1ccc(NCc2ccncc2)cc1 | 62.5 µg/mL (≈ 286 µM) | 125 µg/mL (≈ 572 µM) | 31.2 µg/mL (≈ 143 µM) | 31.2 µg/mL (≈ 143 µM) | 62.5 µg/mL (≈ 286 µM) | 62.5 µg/mL (≈ 286 µM) | 125 µg/mL (≈ 572 µM) | 62.5 µg/mL (≈ 286 µM) | 62.5 µg/mL (≈ 286 µM) | 125 µg/mL (≈ 572 µM)
14 | Cc1ccc(NCc2ccncc2)cc1 | 25 µg/mL (≈ 126 µM) | 100 µg/mL (≈ 504 µM) | 50 µg/mL (≈ 252 µM) | 100 µg/mL (≈ 504 µM) | 50 µg/mL (≈ 252 µM) | 50 µg/mL (≈ 252 µM) | 200 µg/mL (≈ 1010 µM) | 100 µg/mL (≈ 504 µM) | 25 µg/mL (≈ 126 µM) | 100 µg/mL (≈ 504 µM)
15 | Clc1ccc(NCc2ccoc2)cc1 | 62.5 µg/mL (≈ 301 µM) | 62.5 µg/mL (≈ 301 µM) | 125 µg/mL (≈ 602 µM) | 125 µg/mL (≈ 602 µM) | 62.5 µg/mL (≈ 301 µM) | 125 µg/mL (≈ 602 µM) | 62.5 µg/mL (≈ 301 µM) | 125 µg/mL (≈ 602 µM) | 62.5 µg/mL (≈ 301 µM) | 62.5 µg/mL (≈ 301 µM)
16 | CN(C)c1ccc(CNc2ccccc2)cc1 | > 250 µg/mL | 200 µg/mL (≈ 884 µM) | > 250 µg/mL | > 250 µg/mL | > 250 µg/mL | > 250 µg/mL | > 250 µg/mL | > 250 µg/mL | > 250 µg/mL | > 250 µg/mL
17 | Fc1ccc(NCc2ccco2)cc1 | 62.5 µg/mL (≈ 327 µM) | 100 µg/mL (≈ 523 µM) | 125 µg/mL (≈ 654 µM) | 100 µg/mL (≈ 523 µM) | 100 µg/mL (≈ 523 µM) | 100 µg/mL (≈ 523 µM) | > 250 µg/mL | 125 µg/mL (≈ 654 µM) | 25 µg/mL (≈ 131 µM) | 250 µg/mL (≈ 1310 µM)
18 | Brc1ccc(NCc2ccco2)cc1 | 12.5 µg/mL (≈ 49.6 µM) | 50 µg/mL (≈ 198 µM) | 75 µg/mL (≈ 297 µM) | 62.5 µg/mL (≈ 248 µM) | 50 µg/mL (≈ 198 µM) | 6.25 µg/mL (≈ 24.8 µM) | 50 µg/mL (≈ 198 µM) | 50 µg/mL (≈ 198 µM) | 3.12 µg/mL (≈ 12.4 µM) | 62.5 µg/mL (≈ 248 µM)
19 | COc1ccc(NCc2ccco2)cc1 | 50 µg/mL (≈ 246 µM) | 250 µg/mL (≈ 1230 µM) | > 250 µg/mL | > 250 µg/mL | > 250 µg/mL | 100 µg/mL (≈ 492 µM) | 250 µg/mL (≈ 1230 µM) | > 250 µg/mL | 100 µg/mL (≈ 492 µM) | 250 µg/mL (≈ 1230 µM)
20 | Cc1ccc(NCc2ccsc2)cc1 | 125 µg/mL (≈ 615 µM) | 250 µg/mL (≈ 1230 µM) | > 250 µg/mL | > 250 µg/mL | 250 µg/mL (≈ 1230 µM) | 250 µg/mL (≈ 1230 µM) | 250 µg/mL (≈ 1230 µM) | > 250 µg/mL | 125 µg/mL (≈ 615 µM) | 250 µg/mL (≈ 1230 µM)
21 | C=CCC(Nc1ccc(Cl)cc1)c1ccsc1 (stereo not given) | > 250 µg/mL | > 250 µg/mL | > 250 µg/mL | > 250 µg/mL | 250 µg/mL (≈ 948 µM) | > 250 µg/mL | > 250 µg/mL | > 250 µg/mL | > 250 µg/mL | > 250 µg/mL
22 | Cc1ccc(NCc2cccs2)cc1 | 50 µg/mL (≈ 246 µM) | > 250 µg/mL | > 250 µg/mL | > 250 µg/mL | > 250 µg/mL | 12.5 µg/mL (≈ 61.5 µM) | > 250 µg/mL | > 250 µg/mL | 25 µg/mL (≈ 123 µM) | > 250 µg/mL
23 | N#CC(Nc1ccccc1)c1ccoc1 (stereo not given) | 250 µg/mL (≈ 1260 µM) | > 250 µg/mL | > 250 µg/mL | > 250 µg/mL | > 250 µg/mL | > 250 µg/mL | > 250 µg/mL | > 250 µg/mL | 250 µg/mL (≈ 1260 µM) | > 250 µg/mL
24 | C=CCC(Nc1ccccc1)c1ccsc1 (stereo not given) | 250 µg/mL (≈ 1090 µM) | > 250 µg/mL | > 250 µg/mL | > 250 µg/mL | 250 µg/mL (≈ 1090 µM) | 125 µg/mL (≈ 545 µM) | > 250 µg/mL | > 250 µg/mL | 250 µg/mL (≈ 1090 µM) | > 250 µg/mL
25 | CN(C/C=C/C#CC(C)(C)C)Cc1cccc2ccccc12 [TERBINAFINE] | 0.04 µg/mL (≈ 0.137 µM) | – | – | – | – | 0.04 µg/mL (≈ 0.137 µM) | – | – | 0.01 µg/mL (≈ 0.0343 µM) | –
26 | C[C@@H]1[C@H](O)[C@@H](C)/C=C/C=C/C=C/C=C/C=C/C=C/C=C/[C@H](O[C@@H]2O[C@H](C)[C@@H](O)[C@H](N)[C@@H]2O)C[C@@H]2O[C@](O)(C[C@@H](O)C[C@@H](O)[C@H](O)CC[C@@H](O)C[C@@H](O)CC(=O)O[C@H]1C)C[C@H](O)[C@H]2C(=O)O [AMPHOTERICIN B] | – | 0.5 µg/mL (≈ 0.541 µM) | 0.5 µg/mL (≈ 0.541 µM) | 1 µg/mL (≈ 1.08 µM) | 0.25 µg/mL (≈ 0.271 µM) | – | 0.5 µg/mL (≈ 0.541 µM) | 0.5 µg/mL (≈ 0.541 µM) | – | 0.5 µg/mL (≈ 0.541 µM)
